Several values for one entry are separate records, joined by “and”; a condition that tells them apart may be missing. Identical values can stand only once.
Experiments:
mpkCCD cells = assay: dDAVP-induced cAMP production in mpkCCD cells; format: cell-based, mouse; settings: 10 µmol/l compound, 10 nmol/l dDAVP, 60 min 37 °C
Description: 152 Supplementary Methods
154 We quantified cAMP production with the cAMP dynamic 2 assay kit (Cisbio Bioassays,
155 Codolet, France), which is based on homogeneous time-resolved fluorescence (HTRF)
156 technology, as previously described 1. For cells expressing the Apelin-R, 2000 CHO cells/well
157 stably expressing rat apelinR-EGFP (clone B70) were added to the 384-well plate and
158 stimulated with 5 µmol/l forskolin (FSK) and various concentrations (0.01 pmol/l to 100
For cells expressing the V2-R, HEK-
160 293T cells were transiently transfected with the human V2-R (cDNA Resource Center), after
161 48h, 4000 cells/well were added to white 384-well optiplates and stimulated either with 5
Cells were then lysed, and
165 cAMP levels were determined in accordance with the kit manufacturer’s instructions.
166 Stimulation was performed in stimulation buffer-IBMX (SBI) (Hank’s balanced salt solution
167 (HBSS-Life Technology), 5 mmol/l Hepes, 0.1% BSA stabilizer (Perkin Elmer), 1 mmol/l
168 isobutylmethylxanthine (IBMX, Sigma Aldrich, pH 7.4)). For cAMP assay with mpkCCD
169 cells, the cells were grown on 12 mm Transwell filters (0.4 μm pore size, Corning Costar,
170 Cambridge, MA) until they reach confluency (4-5 days). For forskolin experiments, culture
171 media was replaced with SBI in apical and basolateral compartments. After 30 min of […]

[1] = Brain apelin-immunoreactive levels in rats (RIA); format: in vivo, rat
Description: 187 Apelin radioimmunoassay
189 until use for apelin RIA.
The supernatants were collected and
The samples were dried and dissolved in
201 centrifuged (17000 x g, 4°C, 20 min). The supernatant (4 ml) was collected, and mixed with
The columns were then treated as described in
Samples (0.1ml) w ere mixed with 125I-
212 used this radioligand instead of [Glp65, Nle75, Tyr77] [125I]-apelin13 since the substitution of
214 derivatives as described previously by 3,4.
216 incubated for 10 min at room temperature.

[2] = in plasma; cited from earlier work
[3] = Plasma LIT01-196 levels by mass spectrometry after i.v. injection in mice; format: in vivo, mouse; settings: for Apelin (plasma LIT01-196 concentration by mass spectrometry): 300 nmol/kg IV
From the text: The detection limit was 6
The within- and between-assay
229 coefficients of variation were 3 and 5%, respectively6. The recovery (mean±SEM) was
233 the elimination rate constant.
236 animals per time point).
242 and 0.05% formic acid; solvent B: acetonitrile). Plasma samples were processed before RP-
244 acetonitrile for protein precipitation and compound extraction. Samples were vortex-stirred
248 standard and compared to standard curves. Standard curves were obtained by analyzing
250 using the same procedure. Pharmacokinetics parameters were calculated using a one-
Peptide injection and blood sample collection were performed by […]

## CSCC[C@H](NC(=O)[C@@H]1CCCN1C(=O)CNC(=O)[C@H](CCCCN)NC(=O)[C@H](Cc1c[nH]cn1)NC(=O)[C@H](CO)NC(=O)[C@H](CC(C)C)NC(=O)[C@H](CCCNC(=N)N)NC(=O)[C@@H]1CCCN1C(=O)[C@H](CCCNC(=N)N)NC(=O)[C@H](CCC(N)=O)NC(=O)[C@H](CCCNC(=N)N)NC(=O)[C@H](CCCNC(=N)N)NC(=O)[C@H](Cc1ccccc1)NC(=O)[C@H](CCCCN)NC(=O)CCC(F)(F)C(F)(F)C(F)(F)C(F)(F)C(F)(F)C(F)(F)C(F)(F)C(F)(F)F)C(=O)N1CCC[C@H]1C(=O)N[C@@H](Cc1ccccc1)C(=O)O [LIT01-196]
mpkCCD cells
  inhibition of dDAVP-induced cAMP production: 79%
[1]; rats and mice, 30 min after s.c. 900 nmol/kg
  crossing of the blood-brain barrier: does not cross the BBB and does not enter the brain
[1]; rats, 30 min after 900 nmol/kg SC, single animals
  Brain apelin: 1.581 and 0.931 and 1.563 and 1.024 and 1.473
[1]; rats, 30 min after s.c. 900 nmol/kg, saline 1.2 ± 0.15, n = 5
  apelin-IR levels in the brain: 1.3 ± 0.14 pmol/brain
[2]
  plasma half-life: > 1440 min
[3]; temps.min 5, single animals
  Apelin (plasma LIT01-196 concentration by mass spectrometry): 774.627 and 804.594 and 622.343
[3]; temps.min 15, single animals
  Apelin (plasma LIT01-196 concentration by mass spectrometry): 548.524 and 627.056 and 820.177
[3]; temps.min 28, single animals
  Apelin (plasma LIT01-196 concentration by mass spectrometry): 266.538 and 138.326 and 371.965
[3]; temps.min 60, single animals
  Apelin (plasma LIT01-196 concentration by mass spectrometry): 64.4359 and 230.369 and 324.336
[3]; CD-1, mouse, in vivo, iv, 300 nmol/kg i.v., UHPLC-MS/MS, one-compartment model, 3 animals per time point
  half-life: 29 min
